Source: US20100056497A1, “AMIDE DERIVATIVE” (DAINIPPON SUMITOMO PHARMA CO., LTD, priority 2007, published 2010)
pIC50: −log10 of the molar value. Counter-ions that a name gives are not always drawn.

Target: T1, Recombinant human renin (Homo sapiens, UniProt P00797)
T1 sequence (P00797 67-406): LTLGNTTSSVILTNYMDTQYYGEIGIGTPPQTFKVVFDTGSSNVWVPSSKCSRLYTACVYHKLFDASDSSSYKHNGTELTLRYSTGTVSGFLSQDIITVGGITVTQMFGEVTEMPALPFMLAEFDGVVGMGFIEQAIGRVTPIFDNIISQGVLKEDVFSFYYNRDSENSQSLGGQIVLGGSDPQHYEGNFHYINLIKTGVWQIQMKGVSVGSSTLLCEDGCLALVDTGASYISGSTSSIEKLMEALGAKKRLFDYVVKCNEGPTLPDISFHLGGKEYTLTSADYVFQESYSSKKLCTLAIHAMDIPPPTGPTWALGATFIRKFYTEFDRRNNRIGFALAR
Test: In vitro renin inhibitory activity assay (fluorescence, FRET peptide substrate)
Type: biochemical
Conditions: 37° C., one hour, substrate 4 μM, pH 7.4
Method: In Vitro Renin Inhibitory Activity Assay
Recombinant human renin (50 ng) was reacted in 0.1M BEPES buffer (pH 7.4) containing 0.1M NaCl, 1 mM EDTA and 0.1 mg/mL BSA together with a substrate and a test compound at 37° C. for one hour. As the substrate, Arg-Glu(EDANS)-Ile-His-Pro-Phe-His-Leu-Val-Ile-His-Thr-Lys(DABCYL)-Arg or DABCYL-γ-Abu-Ile-His-Pro-Phe-His-Leu-Val-Ile-His-Thr-EDANS was added in such an amount so that the final concentration thereof became 4 μM. The elevated fluorescence intensity at the exciting wavelength 340 nm and the fluorescence wavelength 500 nm was measured by a fluorescence plate reader. The concentration of a test compound to be needed to inhibit an enzyme activity in the presence of a test compound in plural concentrations by 50% was calculated as an IC50 value.
The amino acid sequence disclosed in Seq ID:1 is an amino acid sequence used in the renin inhibitory activity assay.
The amino acid sequence disclosed in Seq ID:2 is an amino acid sequence used in the renin inhibitory activity assay.

Structure (SMILES) | pIC50
COCCCOc1cc(C(=O)N(C(C)C)[C@@H]2CCCNC2)ccc1OC [Example 1, N-Isopropyl-4-methoxy-3-(3-methoxypropoxy)-N-[(3R)-piperidin-3-yl]benzamide hydrochloride] | 6.48
CCN(C(=O)C[C@H]1CC[C@@H](N(C(=O)c2ccc(OC)c(OCCCOC)c2)C(C)C)CN1)C(C)C (racemic) [Example 22, N-((rac.)-(3R,6R)-6-{2-[Ethyl(isopropyl)amino]-2-oxoethyl}piperidin-3-yl)-N-isopropyl-4-methoxy-3-(3-methoxypropoxy)benzamide hydrochloride] | 6.32
COCCCOc1cc(C(=O)N(C(C)C)[C@@H]2CC[C@@H](CCN(C(=O)Cc3ccccc3)C3CC3)NC2)ccc1OC (racemic) [Example 23, N-((rac.)-(3R,6S)-6-{2-[Cyclopropyl(phenylacetyl)amino]ethyl}piperidin-3-yl)-N-isopropyl-4-methoxy-3-(3-methoxypropoxy)benzamide hydrochloride] | 6.48
COCCCOc1cc(C(=O)N(C(C)C)[C@@H]2CC[C@H](CCN(C(=O)CCCO)C3CC3)NC2)ccc1OC [Example 66, N-((3R,6R)-6-{2-[Cyclopropyl(4-hydroxybutanoyl)amino]ethyl}piperidin-3-yl)-N-isopropyl-4-methoxy-3-(3-methoxypropoxy)benzamide hydrochloride] | 7.21
COCCCCN1C(=O)C(C)(C)Oc2ccc(C(=O)N(C(C)C)[C@@H]3CCCNC3)cc21 [Example 126, N-Isopropyl-4-(4-methoxybutyl)-2,2-dimethyl-3-oxo-N-[(3R)-piperidin-3-yl]-3,4-dihydro-2H-1,4-benzoxazine-6-carboxyamide hydrochloride] | 7.66
COCCCOc1cc(C(=O)N(C(C)C)[C@H]2CNC[C@@H](COc3cccc(OCc4ccccc4)c3)C2)ccc1OC (racemic) [Example 50, hydrochloride] | 6.27
CCCN(CCc1ccccc1)C(=O)OC[C@@H]1CNC[C@H](N(C(=O)c2ccc(OC)c(OCCCOC)c2)C(C)C)C1 (racemic) [Example 59] | 6.96
CCOC(=O)C[C@H]1CC[C@@H](N(C(=O)c2ccc(OC)c(OCCCOC)c2)C(C)C)CN1 (racemic) [Example 14, Ethyl ((rac.)-(2R,5R)-5-{isopropyl[4-methoxy-3-(3-methoxypropoxy)benzoyl]-amino}piperidin-2-yl)acetate] | 6.03
COCCCOc1cc(C(=O)N(C(C)C)[C@@H]2CC[C@H](CCN(C(=O)Cc3cccnc3)C3CC3)NC2)ccc1OC [Example 78, N-((3R,6R)-6-{2-[Cyclopropyl(pyridin-3-ylacetyl)amino]ethyl}piperidin-3-yl)-N-isopropyl-4-methoxy-3-(3-methoxypropoxy)benzamide trifluoroacetate] | 9.10
COCCCOc1cc(C(=O)N(C(C)C)C2CNC[C@@H](C(=O)N(C)Cc3ccccc3)C2)ccc1OC (mixture of isomers) [Example 41, (rac.)-(3S,5R)-N-Benzyl-5-{isopropy[4-methoxy-3-(3-methoxyproroxy)benzoyl]-amino}-N-methylpiperidine-3-carboxamide hydrochloride] | 6.37
COCCCOc1cc(C(=O)N(C(C)C)[C@@H]2CC[C@H](CC(=O)NC3CC3)NC2)ccc1OC (racemic) [Example 52, N-{ (rac.)-(3R,6R)-6-[2-(Cyclopropylamino)-2-oxoethyl]piperidin-3-yl)-N-isopropyl-4-methoxy-3-(3-methoxypropoxy)benzamide hydrochloride] | 6.23
COCCCOc1cc(C(=O)N(C(C)C)[C@@H]2CC[C@H](CCN(C(=O)CC(C)(C)C(N)=O)C3CC3)NC2)ccc1OC [Example 69, N^4-Cyclopropyl-N^4-[2-((2R,5R)-5-{isopropyl[4-methoxy-3-(3-methoxypropoxy)-benzoyl]amino}piperidin-2-yl)ethyl]-2,2-dimethylsuccinamide trifluoroacetate] | 7.55
COCCCOc1cc(C(=O)N(C(C)C)[C@H]2CNC[C@@H](COc3ccccc3-c3ccccc3)C2)ccc1OC (racemic) [Example 46, N-{(rac.)-(3R,5S)-5-[(Biphenyl-2-yloxy)methyl]piperidin-3-yl}-N-isopropyl-4-methoxy-3-(3-methoxypropoxy)benzamide hydrochloride] | 6.10
COCCCOc1cc(C(=O)N(C[C@@H]2CCNC2)C(C)C)ccc1OC [Compound B, reference compound] | 5.64
COCCCOc1cc(C(=O)N(C(C)C)[C@@H]2CC[C@H](CCN(C(=O)CCOC)C3CC3)NC2)ccc1OC [Example 64, N-((3R,6R)-6-{2-[Cyclopropyl(3-methoxypropanoyl)amino]ethyl}piperidin-3-yl)-N-isopropyl-4-methoxy-3-(3-methoxypropoxy)benzamide hydrochloride] | 7.77
CCN(CCc1ccccc1)C(=O)OC[C@@H]1CNC[C@H](N(C(=O)c2ccc(OC)c(OCCCOC)c2)C(C)C)C1 (racemic) [Example 58] | 6.82
COCCCOc1cc(C(=O)N(C(C)C)[C@H]2CNC[C@H](COC(=O)NC(C)C)C2)ccc1OC (racemic) [Example 57, ((rac.)-(3R,5R)-5-{Isopropyl[4-methoxy-3-(3-methoxypropoxy)benzoyl]amino}-piperidin-3-yl)methyl isopropylcarbamate hydrochloride] | 6.08
COCCCOc1cc(C(=O)N(C(C)C)[C@@H]2CC[C@H](CCN(C(=O)Cc3ccccn3)C3CC3)NC2)ccc1OC [Example 75, N-((3R,6R)-6-{2-[Cyclopropyl(pyridin-2-ylacetyl)amino]ethyl}piperidin-3-yl)-N-isopropyl-4-methoxy-3-(3-methoxypropoxy)benzamide trifluoroacetate] | 8.33
COCCCOc1cc(C(=O)N(C(C)C)[C@@H]2CC[C@H](CCN(C(=O)CC(C)(C)O)C3CC3)NC2)ccc1OC [Example 67, N-((3R,6R)-6-{2-[Cyclopropyl(3-hydroxy-3-methylbutanoyl)amino]ethyl}piperidin-3-yl)-N-isopropyl-4-methoxy-3-(3-methoxypropoxy)benzamide hydrochloride] | 7.89
COCCCOc1cc(C(=O)N(C(C)C)[C@H]2CNC[C@@H](COc3cccc(Oc4ccccc4)c3)C2)ccc1OC (racemic) [Example 49, N-Isopropyl-4-methoxy-3-(3-methoxypropoxy)-N-{(rac.)-(3R,5S)-5-[(3-phenoxy-phenoxy)methyl]piperidin-3-yl}benzamide hydrochloride] | 6.13
COCCCOc1cc(C(=O)N(C(C)C)[C@@H]2CC[C@H](CCN(C(=O)Cc3cccc(NS(C)(=O)=O)c3)C3CC3)NC2)ccc1OC [Example 81, N-((3R,6R)-6-{2-[Cyclopropyl({3-[(methylsulfonyl)amino]phenyl}acetyl)amino]-ethyl}piperidin-3-yl)-N-isopropyl-4-methoxy-3-(3-methoxypropoxy)benzamide trifluoroacetate] | 8.89
COCCCOc1cc(C(=O)N(C(C)C)[C@@H]2CC[C@H](CCN(C(=O)Cc3ccccc3Cl)C3CC3)NC2)ccc1OC [Example 72, N-((3R,6R)-6-{2-[[(2-chlorophenyl)acetyl](cyclopropyl)amino]ethyl}piperidin-3-yl)-N-isopropyl-4-methoxy-3-(3-methoxypropoxy)benzamide trifluoroacetate] | 8.43
CCCN(CC1CC1)C(=O)C[C@H]1CC[C@@H](N(C(=O)c2ccc(OC)c(OCCCOC)c2)C(C)C)CN1 (racemic) [Example 20, N-((rac.)-(3R,6R)-6-{2-[(Cyclopropylmethyl)(propyl)amino]-2-oxoethyl}piperidin-3-yl)-N-isopropyl-4-methoxy-3-(3-methoxypropoxy)benzamide hydrochloride] | 6.38
COCCCOc1cc(C(=O)N(C(C)C)[C@@H]2CC[C@H](CCN(C(=O)Cc3ccccc3C(F)(F)F)C3CC3)NC2)ccc1OC [Example 74, N-{(3R,6R)-6-[2-(Cyclopropyl{[2-(trifluoromethyl)phenyl]acetyl}amino)ethyl]-piperidin-3-yl}-N-isopropyl-4-methoxy-3-(3-methoxypropoxy)benzamide trifluoroacetate] | 8.29
COCCCOc1cc(C(=O)N(C(C)C)[C@@H]2CC[C@H](CCN(C(=O)C=C(C)C)C3CC3)NC2)ccc1OC [Example 68, N-((3R,6R-6-{2-[Cyclopropyl(3-methyl-2-butenoyl)amino]ethyl}piperidin-3-yl)-N-isopropyl-4-methoxy-3-(3-methoxypropoxy)benzamide hydrochloride] | 8.17
COCCCOc1cc(C(=O)N(C(C)C)[C@@H]2CC[C@H](CCN(C(=O)Cc3cccc(C(=O)O)c3)C3CC3)NC2)ccc1OC [Example 86, 3-(2-{Cyclopropyl[2-((2R,5R)-5-{isopropyl[4-methoxy-3-(3-methoxypropoxy)-benzoyl]amino}piperidin-2-yl)ethyl]amino}-2-oxoethyl)benzoic acid hydrochloride] | 8.40
